Assay results as given in PMC5025651, “Reprofiled anthelmintics abate hypervirulent stationary-phase Clostridium difficile” (Scientific Reports, 2016).
≈ marks a conversion by molar mass, not a printed value. Where a name gives a salt, the structure may show the parent alone. Read-outs that look alike come from different tables or passages of the source.

What was measured:
C. sporogenes ATCC 15579 = assay: MIC by broth microdilution; assay type: cell-based; conditions: Clostridium sporogenes, ATCC15579, BHIS, anaerobic, duplicate
C. difficile strain 4118 = assay: Serial passage experiments (resistance development); assay type: cell-based, Clostridium difficile; conditions: after 21 serial passages of CD4118 at 0.5 × MIC
Procedure: C. difficile strain 4118 serial passages were performed in BHIS containing 0.03% L-cysteine, using the broth microdilution method. The MIC for each compound was first determined according to the procedure detailed above. […] Serial passage experiments were performed in duplicate.

[1] = tested on: C. difficile isolate 20121412 (ribotype 047); assay: MIC by broth microdilution; assay type: cell-based, Clostridium difficile; conditions: Clostridioides difficile
L. plantarum ATCC 8014 = assay: MIC by broth microdilution; assay type: cell-based; conditions: Lactiplantibacillus plantarum
P. aeruginosa PAO1 = assay: MIC by broth microdilution; assay type: cell-based; conditions: Pseudomonas aeruginosa
[2] = tested on: panel of obligate aerobes, facultative anaerobes and obligate anaerobes; assay: Antibacterial spectrum, MIC against a panel of bacteria; assay type: cell-based; conditions: ratio of MIC values
Sheep red blood cells = assay: Hemolysis assay; assay type: cell-based; conditions: tested at 32 μg/mL, sheep erythrocytes
In short: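 PBS-washed sheep erythrocytes (3% suspension, pH 7.4) were exposed to compound at 32 μg/mL final for 1 h at 37 °C. After centrifugation, supernatant absorbance at 540 nm was read against 1% Triton X-100 (full lysis) and 0.5% DMSO in PBS. Triplicate.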

HepG2 cells = assay: In vitro cytotoxicity, MTS assay; assay type: cell-based, human; conditions: for in vitro toxicity compared with niclosamide (in words): 0.125–32 μg/mL
Procedure: (§1) Cell lines Hep G2 [HEPG2] (ATCC® HB-8065^TM) and 293T/17 [HEK 293T/17] (ATCC® CRL-11268^TM) were purchased from ATCC and cultured according to manufacturer’s instructions. HEPG2 or HEK 293T/17 cells were cultured in 96-well plates, and incubated at 37 °C in a 5% CO2 humidifying chamber for 24 h. Cells were then treated with test compounds at concentrations ranging from 0.125–32 μg/mL, and an MTS assay was performed at 16-h post-incubation at 37 °C in a 5% CO2 humidifying chamber, using the CellTiter 96 aqueous non-radioactive cell proliferation assay kit (Promega, Madison, WI, USA) per manufacturer’s instructions. MTS assays were performed in duplicate.

HEK 293T/17 cells = assay: In vitro cytotoxicity, MTS assay; assay type: cell-based, human; conditions: HEK 293T/17, MTS; for in vitro toxicity compared with niclosamide (in words): 0.125–32 μg/mL
Procedure: as §1

[3] = ruminants; cited from earlier work
[4] = tested on: C. difficile strain 630 (CD630, ATCC BAA-1382-FZ, ribotype 012); assay: MIC by broth microdilution; assay type: cell-based, Clostridium difficile
[5] = isolate 20121412, ribotype 047, duplicate, read-out: MIC
[6] = ATCC8014, L. plantarum ATCC 8014, CAMHB with 5% laked horse blood, ~48 h, duplicate, read-out: MIC
[7] = P. aeruginosa PAO1, CAMHB, aerobic, duplicate, read-out: MIC

SMILES | MIC (C. sporogenes ATCC 15579) | final MIC relative to initial (pre-passage) MIC (C. difficile strain 4118) | MIC [1, 5] | MIC (L. plantarum ATCC 8014; [6]) | MIC (P. aeruginosa PAO1; [7]) | selectivity for C. difficile over Bifidobacterium/Lactobacillus strains and Gram-negative gut commensals (Bacteroides species) [2] | MIC [1] | MIC (L. plantarum ATCC 8014; ATCC8014, 48 h) | MIC (P. aeruginosa PAO1; PAO1) | rupture of red blood cells (in words) (Sheep red blood cells) | no-effect concentration on mammalian cell viability relative to MIC values against C. difficile (HepG2 cells; 8 μg/mL, HepG2 and HEK 293T/17) | in vitro toxicity compared with niclosamide (in words) (HepG2 cells; HepG2, MTS) | concentration with no apparent effect on cell viability (HepG2 cells; HepG2, MTS, 16 h) | in vitro toxicity compared with niclosamide (in words) (HEK 293T/17 cells) | concentration with no apparent effect on cell viability (HEK 293T/17 cells; 16 h) | excreted unchanged in the feces [3] | MIC C. difficile 630 ([4]; BHIS broth, anaerobic, 20–24 h, n = 2) | decrease in MIC relative to 5g ([4]; CD630 and CD4118 (Table 2)) | MIC ([4]; Clostridioides difficile, ATCCBAA1382, BHIS broth, anaerobic, 20–24 h, n = 2)
Cc1ncc([N+](=O)[O-])n1CCO [Metronidazole, metronidazole] | 0.25 µg/mL (≈ 1.46 µM) | ~ 2 fold | 0.25 µg/mL (≈ 1.46 µM) | > 32 µg/mL | > 32 µg/mL | – | – | – | – | – | – | – | – | – | – | – | – | – | –
O=C(Nc1ccc(Oc2ccc(Cl)cc2)c(Cl)c1)c1cc(I)cc(I)c1O [Rafoxanide, rafoxanide] | 1 µg/mL (≈ 1.6 µM) | – | – | – | – | ≥ 32 fold | 0.03 µg/mL (≈ 0.0479 µM) | 32 µg/mL (≈ 51.1 µM) | > 32 µg/mL | did not cause rupture of red blood cells | ≥ 64 fold | lower in vitro toxicities | ≥ 8000 ng/mL | lower in vitro toxicities | ≥ 8000 ng/mL | – | – | – | –
Cc1cc(C(C#N)c2ccc(Cl)cc2)c(Cl)cc1NC(=O)c1cc(I)cc(I)c1O (stereo not drawn) [Closantel] | 1 µg/mL (≈ 1.51 µM) | – | 0.125 µg/mL (≈ 0.189 µM) | > 32 µg/mL | > 32 µg/mL | – | – | – | – | – | – | – | – | – | – | ≤ 90% | – | – | –
CN[C@H](CC(C)C)C(=O)N[C@H]1C(=O)N[C@@H](CC(N)=O)C(=O)N[C@H]2C(=O)N[C@H]3C(=O)N[C@H](C(=O)N[C@H](C(=O)O)c4cc(O)cc(O)c4-c4cc3ccc4O)[C@H](O)c3ccc(c(Cl)c3)Oc3cc2cc(c3O[C@@H]2O[C@H](CO)[C@@H](O)[C@H](O)[C@H]2O[C@H]2C[C@](C)(N)[C@H](O)[C@H](C)O2)Oc2ccc(cc2Cl)[C@H]1O [Vancomycin, vancomycin hydrochloride hydrate] | 2 µg/mL | ~ 2 fold | 1 µg/mL | > 32 µg/mL | > 32 µg/mL | – | – | – | – | – | – | – | – | – | – | – | – | – | –
O=C(Nc1ccc(Oc2ccc(Cl)cc2)cc1)c1cc(Cl)cc(Cl)c1O [Compound 8] | 4 µg/mL (≈ 9.79 µM) | – | 0.13 µg/mL (≈ 0.318 µM) | 16 µg/mL (≈ 39.2 µM) | > 32 µg/mL | – | – | – | – | did not cause rupture of red blood cells | – | lower in vitro toxicities | – | lower in vitro toxicities | – | – | 0.03 µg/mL (≈ 0.0734 µM) | 4 fold | 0.03 µg/mL (≈ 0.0734 µM)
